Some test systems named below: EKVX NSCLC; SK-MEL-5 melanoma; NCI-H460 lung; SF-268 CNS; OVCAR-8 ovarian; HOP-92 NSCLC; U251 CNS; COLO 205 colon; M14 melanoma; NCI-H23 lung.
What all share (assay): growth of human tumour cells (NCI), 48 h

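Where inhibition never reached the appropriate level, the endpoint shown equals the highest concentration tested. Otherwise, values were interpolated linearly from a five-concentration, 48-hour dose response in 96-well plates. At the GI50, growth is halved. At the TGI there is no net growth.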

Regarding `O=C(O)c1cc(O)c2c(c1)C(C1c3cc(C(=O)O)cc(O)c3C(=O)c3c(OC4OC(CO)C(O)C(O)C4O)cccc31)c1cccc(OC3OC(CO)C(O)C(O)C3O)c1C2=O` (stereo not given), the GI50 in the assay with EKVX NSCLC, with SK-MEL-5 melanoma, in the assay with NCI-H460 lung, with SF-268 CNS, in the assay on OVCAR-8 ovarian and in the assay with HOP-92 NSCLC was more than 100 µM each time. In addition, the GI50 in the assay with U251 CNS, with COLO 205 colon, with M14 melanoma and in the assay with NCI-H23 lung was more than 100 µM throughout. Also, the TGI with EKVX NSCLC, in the assay with SK-MEL-5 melanoma, with NCI-H460 lung, with SF-268 CNS, in the assay on OVCAR-8 ovarian and in the assay on HOP-92 NSCLC was more than 100 µM each time. Further, the TGI in the assay with U251 CNS, with COLO 205 colon, in the assay with M14 melanoma and in the assay with NCI-H23 lung was more than 100 µM throughout.
In the case of `O=C(O)c1cccc(OCCO)c1`, the TGI with EKVX NSCLC, in the assay with SK-MEL-5 melanoma, in the assay on NCI-H460 lung, in the assay with SF-268 CNS, in the assay on OVCAR-8 ovarian and with HOP-92 NSCLC was more than 100 µM each time. In addition, the TGI in the assay on U251 CNS, with COLO 205 colon, with M14 melanoma and in the assay with NCI-H23 lung was more than 100 µM throughout.
As to `N#CC(C(=O)/C(=N/Nc1nc(=S)[nH]n1N)C(C#N)c1ccccc1)c1ccccc1` (stereo not given), the TGI in the assay with EKVX NSCLC, with SK-MEL-5 melanoma, in the assay with NCI-H460 lung, in the assay on SF-268 CNS, in the assay on OVCAR-8 ovarian and in the assay on HOP-92 NSCLC was more than 100 µM throughout. The TGI in the assay with U251 CNS, in the assay with COLO 205 colon, with M14 melanoma and in the assay with NCI-H23 lung was more than 100 µM in each case.
As for `Cc1ccc(N(CSc2ccc(Cl)cc2)CSc2ccc(Cl)cc2)cc1`, the GI50 is 0.542 µM in the assay on EKVX NSCLC; 1.18 µM with SK-MEL-5 melanoma; 0.575 µM in the assay on NCI-H460 lung; 0.909 µM with SF-268 CNS; 1.55 µM with OVCAR-8 ovarian; 1.3 µM in the assay with HOP-92 NSCLC. The GI50 in the assay on U251 CNS is 0.581 µM; in the assay with COLO 205 colon, 1.84 µM; in the assay on M14 melanoma, 1.48 µM; in the assay on NCI-H23 lung, 2.27 µM. Besides, the TGI in the assay with EKVX NSCLC was 26 µM; in the assay with SK-MEL-5 melanoma, 2.5 µM; with NCI-H460 lung it was more than 100 µM; in the assay on SF-268 CNS, 12.4 µM; in the assay with OVCAR-8 ovarian, more than 100 µM; in the assay with HOP-92 NSCLC it was 6.73 µM. For the same molecule, the TGI in the assay with U251 CNS was determined as 11.2 µM; in the assay with COLO 205 colon, 3.38 µM; in the assay on M14 melanoma it was 4.45 µM; in the assay on NCI-H23 lung it was 10.5 µM.
On to `O=C(O)Cc1c(O)ccc2ccccc12`, for which the TGI in the assay on EKVX NSCLC, with SK-MEL-5 melanoma, in the assay on NCI-H460 lung, in the assay on SF-268 CNS, with OVCAR-8 ovarian and in the assay on HOP-92 NSCLC was more than 100 µM in each case. For the same molecule, the TGI in the assay with U251 CNS, in the assay on COLO 205 colon, in the assay with M14 melanoma and in the assay on NCI-H23 lung was more than 100 µM throughout.
In the case of `COC(COC(=O)N1CCN(C=O)CC1)C1=C(N2CC2)C(=O)C(C)=C(N2CC2)C1=O` (stereo not given), the TGI in the assay on EKVX NSCLC amounted to 10.9 µM; with SK-MEL-5 melanoma, 0.7 µM; with NCI-H460 lung, 0.8 µM; with SF-268 CNS, 6.45 µM; in the assay with OVCAR-8 ovarian it was 1.36 µM; in the assay on HOP-92 NSCLC it was 0.919 µM. The TGI is 2.71 µM in the assay on U251 CNS, 0.897 µM in the assay with COLO 205 colon, 1.34 µM in the assay with M14 melanoma and 0.926 µM in the assay on NCI-H23 lung.
Consider `CCOC(=O)C1N(S(=O)(=O)c2ccc(C)cc2)CCC12C(c1ccc(OC)cc1)NC1CCCCC12` (stereo not given), for which the TGI is more than 100 µM in the assay on EKVX NSCLC; more than 100 µM in the assay on SK-MEL-5 melanoma; more than 100 µM with NCI-H460 lung; more than 100 µM with SF-268 CNS; more than 100 µM with OVCAR-8 ovarian; 80.9 µM with HOP-92 NSCLC. The TGI with U251 CNS, in the assay with COLO 205 colon, in the assay on M14 melanoma and in the assay on NCI-H23 lung was more than 100 µM throughout.
Consider `CCN(CC)CCOc1ccc(/C(=C(\C)c2ccc(F)c(OC)c2)c2ccc(Cl)cc2)cc1`, for which the GI50 with EKVX NSCLC is 2.46 µM; with SK-MEL-5 melanoma it was 2.81 µM; in the assay with NCI-H460 lung, 2.07 µM; in the assay on SF-268 CNS it was 2.69 µM; in the assay on OVCAR-8 ovarian it was 2.58 µM; in the assay with HOP-92 NSCLC it was 1.3 µM. The GI50 with U251 CNS is 2.23 µM; with COLO 205 colon it was 1.82 µM; in the assay on M14 melanoma, 2.81 µM; in the assay with NCI-H23 lung, 2.39 µM. For the same molecule, the TGI in the assay with EKVX NSCLC amounted to 5.39 µM; in the assay on SK-MEL-5 melanoma, 5.21 µM; in the assay with NCI-H460 lung it was 4.24 µM; in the assay on SF-268 CNS it was 5.82 µM; with OVCAR-8 ovarian it was 5.37 µM; in the assay on HOP-92 NSCLC it was 3.68 µM. The TGI amounted to 4.74 µM with U251 CNS, 4.51 µM in the assay on COLO 205 colon, 5.64 µM in the assay on M14 melanoma and 4.97 µM in the assay with NCI-H23 lung.
Turning to `COc1ccc(-n2cc(-c3ccc(Cl)c(Cl)c3)nc2SCc2cccc(C#N)c2)cc1`, the GI50 in the assay with EKVX NSCLC was 41.9 µM; with SK-MEL-5 melanoma, 20.2 µM; in the assay on NCI-H460 lung it was 51.5 µM; in the assay with SF-268 CNS it was 37 µM; with OVCAR-8 ovarian, 18.6 µM; with HOP-92 NSCLC, 10.1 µM. The GI50 with U251 CNS was 26.8 µM; with COLO 205 colon, 51.7 µM; in the assay on M14 melanoma, 48.2 µM; in the assay with NCI-H23 lung, 39.8 µM. Besides, the TGI was more than 100 µM in the assay with EKVX NSCLC; more than 100 µM in the assay on SK-MEL-5 melanoma; more than 100 µM in the assay with NCI-H460 lung; more than 100 µM with SF-268 CNS; more than 100 µM in the assay on OVCAR-8 ovarian; 40.3 µM in the assay on HOP-92 NSCLC. The TGI in the assay on U251 CNS, in the assay on COLO 205 colon, with M14 melanoma and in the assay on NCI-H23 lung was more than 100 µM throughout.
Consider `COc1ccccc1/C=C/c1cnccn1`, for which the TGI with EKVX NSCLC, in the assay on SK-MEL-5 melanoma, in the assay with NCI-H460 lung, in the assay with SF-268 CNS, with OVCAR-8 ovarian and in the assay with HOP-92 NSCLC was more than 10 µM throughout. The TGI in the assay on U251 CNS, in the assay on COLO 205 colon, in the assay with M14 melanoma and with NCI-H23 lung was more than 10 µM each time.

For the origin of these results see PubChem BioAssay (NCI).
